{"source": "patent US8980226B2", "about": "“Aerosolized fosfomycin/aminoglycoside combination for the treatment of bacterial respiratory infections” (Gilead Sciences, Inc., priority 2004, dated 2015)", "key": {"[1]": {"test_system": "E. coli, Proteus spp., Salmonella spp., Shigella spp., and S. marcescens", "settings": "Forsgren and Walder, 1983; cited from earlier work"}, "E. coli ATCC 25922": {"test_system": "E. coli ATCC 25922", "assay": "Animal efficacy, rat lung infection, aerosol administration", "assay_type": "in vivo", "settings": "aerosol administration of a 40 mg/mL solution of tobramycin alone (FIG. 18)", "protocol": "The in vivo efficacy of aerosolized fosfomycin alone, tobramycin alone and combinations of fosfomycin plus tobramycin were evaluated against E. coli ATCC 25922 and P. aeruginosa ATCC 27853 in rat lungs. The bacterial inoculum used to establish the rat lung infections consisted of a mixture of bacteria and agarose beads. E. coli ATCC 25922 or P. aeruginosa ATCC 27853 was streaked onto blood agar plates and incubated for 18-24 hours at 35° C. Two to three colonies were inoculated into 10 mL Tryptic Soy Broth (hereafter referred to as TSB) and incubated statically at 35° C. for 1.5 to 2 hours. The culture was adjusted to an optical density of 0.1 (625 nm) in fresh TSB and then diluted 1:5 in TSB. One milliliter of bacterial suspension (approximately 10^7 CFU/mL) was added to 10 mL of a 2% noble agar solution and briefly mixed by inversion. The mixture was added to 150 mL of heavy white mineral oil equilibrated to 55° C. and stirred on ice for 5 minutes. The cooled suspension was poured into a 250 mL centrifuge tube and centrifuged at 3,000 rpm, 4° C., for 10 minutes. The supernatant was decanted off, the pellet resuspended in 25 mL of normal sterile saline, and transferred to a 50 mL conical centrifuge tube. […]\nBacterial killing was evaluated 18 hours after the last exposure. […] The lungs were removed aseptically, excess tissue removed and the lung weight determined. […]"}}}
{"smiles": "C[C@@H]1O[C@@H]1P(=O)(O)O", "note": "[Fosfomycin]", "values": [{"measurement": "fosfomycin concentrations at which the species are generally inhibited", "setting": "[1]", "result": "≤ 64", "unit": "µg/mL"}]}
{"smiles": "NC[C@H]1O[C@H](O[C@H]2[C@H](O)[C@@H](O[C@H]3O[C@H](CO)[C@@H](O)[C@H](N)[C@H]3O)[C@H](N)C[C@@H]2N)[C@H](N)C[C@@H]1O", "note": "[Tobramycin]", "values": [{"measurement": "killing of E. coli in the rat lung", "setting": "E. coli ATCC 25922", "result": 2, "unit": "log 10"}]}
